From patent publication EP4603105A1, “PHARMACEUTICAL COMPOSITION CONTAINING CYCLIC COMPOUND HAVING SELECTIVE KRAS INHIBITORY EFFECT AGAINST HRAS AND NRAS” (CHUGAI SEIYAKU KABUSHIKI KAISHA, priority 2022, dated 2024)
Where a SMILES comes first, the peptide text is derived from it. Bridges are numbered along the chain shown (N, C = ends). [ ]: non-standard residue; d: D form. The star is where a group is joined. hPhe(3-Cl-4-CF3) = N[C@@H](CCc1ccc(C(F)(F)F)c(Cl)c1)C(=O)O; NPrPhe(4-CF3) = CCCN[C@@H](Cc1ccc(C(F)(F)F)cc1)C(=O)O; NMeGly(cPent) = CN[C@H](C(=O)O)C1CCCC1; Hyp = O=C(O)[C@@H]1C[C@@H](O)CN1; NMeD = CN[C@@H](CC(=O)O)C(=O)O; NMeL = CN[C@@H](CC(C)C)C(=O)O; Pip = O=C(O)[C@@H]1CCCCN1; Morpholide = C1CN(*)CCO1; Ac5c = NC1(C(=O)O)CCCC1; Aze = O=C(O)[C@@H]1CCN1; Ac4c = NC1(C(=O)O)CCC1; NEtG = CCNCC(=O)O; Sar = CNCC(=O)O

What was measured:
[1] = biological target: GDP-bound NRAS wild-type protein (Homo sapiens, UniProt P01111); assay: Binding to NRAS by surface plasmon resonance (SPR), KD and KD ratio to KRAS
Method in brief: (§1)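 Captured GDP-RAS (~100–300 RU) was exposed to increasing compound concentrations, 75 s per step, in running buffer with 10 µM GDP, 10 mM MgCl2 and 4% DMSO at pH 7.4.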

HRAS wild-type protein = HRAS wild-type protein (Homo sapiens, UniProt P01112); assay: Binding to HRAS by surface plasmon resonance (SPR), KD and KD ratio to KRAS
Method in brief: as §1

[2] = test system: human lung cancer strain NCI-H441; format: cell-based
Method in brief: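 Step one: dispense the test compound in serial DMSO dilutions. Step three: add the reagent and measure […].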

[3] = biological target: GDP-bound KRAS wild-type protein (Homo sapiens, UniProt P01116); assay: Binding to KRAS by surface plasmon resonance (SPR), dissociation constant KD
Method in brief: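 Running buffer contained 10 µM GDP and 10 mM MgCl2 to keep RAS in the GDP state, with 4% DMSO at pH 7.4. Compounds were flowed at 100 µL/min in 75 s steps of rising concentration over captured biotin-Avi RAS at 30°C. Sensorgrams were fitted 1:1 for KD.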

[4] = ratio of the KD value with respect to GDP-bound NRAS wild-type protein to the KD value with respect to KRAS
[5] = ratio of the KD value with respect to HRAS wild-type protein to the KD value with respect to KRAS
[6] = Single Cycle Kinetics, 1:1 binding model
[7] = ratio of KD for GDP-bound NRAS wild-type protein to KD for KRAS
[8] = ratio of KD for HRAS wild-type protein to KD for KRAS

Sequence of GDP-bound KRAS wild-type protein (P01116 1-188 isoform P01116-2): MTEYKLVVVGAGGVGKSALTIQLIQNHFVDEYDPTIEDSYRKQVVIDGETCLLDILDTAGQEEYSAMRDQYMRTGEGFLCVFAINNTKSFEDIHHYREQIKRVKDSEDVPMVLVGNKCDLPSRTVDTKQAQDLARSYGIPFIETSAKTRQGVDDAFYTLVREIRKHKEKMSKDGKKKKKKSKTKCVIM
Sequence of GDP-bound NRAS wild-type protein (P01111 whole entry): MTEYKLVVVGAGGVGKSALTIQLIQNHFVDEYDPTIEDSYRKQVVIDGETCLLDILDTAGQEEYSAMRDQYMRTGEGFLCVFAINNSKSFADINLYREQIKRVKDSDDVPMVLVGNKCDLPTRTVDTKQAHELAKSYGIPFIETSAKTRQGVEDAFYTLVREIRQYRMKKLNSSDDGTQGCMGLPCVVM
Sequence of HRAS wild-type protein (P01112 whole entry): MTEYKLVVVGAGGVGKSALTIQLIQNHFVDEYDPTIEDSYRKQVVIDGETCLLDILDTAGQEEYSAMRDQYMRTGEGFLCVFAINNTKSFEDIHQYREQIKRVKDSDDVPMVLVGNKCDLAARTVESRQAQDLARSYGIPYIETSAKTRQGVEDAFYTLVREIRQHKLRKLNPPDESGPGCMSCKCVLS

IC50 [2]	Kd [3, 6]	Kd ([3]; 1:1 binding model)	Kd ([3]; Single Cycle Kinetics)	Compound	NRAS /KRAS [1, 4]	HRAS /KRAS (HRAS wild-type protein; [5])	NRAS /KRAS [1, 7]	HRAS /KRAS (HRAS wild-type protein; [8])
38 nM	0.38 nM	–	–	CCO[C@@H]1C[C@H]2C(=O)NC3(CC(C)(C)C3)C(=O)N(C)[C@@H](C(CC)CC)C(=O)N(C)[C@H](C(=O)N3CCCC3)CC(=O)N(C)[C@@H](COC)C(=O)N[C@@H]([C@@H](C)CC)C(=O)N(C)CC(=O)N(C)[C@H]3C/C=C\CCN(C3=O)[C@@H](Cc3ccc(C)cc3)C(=O)N(C)CC(=O)N[C@@H](CCc3cc(F)c(C(F)(F)F)c(F)c3)C(=O)N2C1 [PP2139]	AA (a compound having 20 or more is denoted as AA)	A (a compound having 10 or more and less than 20 is denoted as A)	–	–
507 nM	–	4.4 nM	–	CC[C@H](C)[C@@H]1NC(=O)[C@H](COC)N(C)C(=O)C[C@@H](C(=O)N(C)CC)N(C)C(=O)[C@H](C2CCCC2)N(C)C(=O)C2(CC(C)(C)C2)NC(=O)[C@@H]2C[C@@H](F)CN2C(=O)[C@H](CCc2cc(F)cc(F)c2)NC(=O)CN(C)C(=O)[C@H](Cc2ccc(C(F)(F)F)cc2)N2CC/C=C\C[C@@H](C2=O)N(C)C(=O)CN(C)C1=O [PP3138]	–	–	A (a compound having 10 or more and less than 20 is denoted as A)	A (a compound having 10 or more and less than 20 is denoted as A)
7.9 nM	–	0.056 nM	–	CCCC[C@H]1C(=O)N[C@@H]([C@@H](C)CC)C(=O)N(C)CC(=O)N(C)[C@H]2C/C=C\CCN(C2=O)[C@@H](Cc2ccc(C)cc2)C(=O)N(C)CC(=O)N[C@@H](CCc2cc(F)c(C(F)(F)F)c(F)c2)C(=O)N2C[C@H](OCC)C[C@H]2C(=O)NC2(CC(C)(C)C2)C(=O)N(C)[C@@H](C2CCCC2)C(=O)N(C)[C@H](C(=O)N(C)C)CC(=O)N1C [PP2800]	–	–	A (a compound having 10 or more and less than 20 is denoted as A)	A (a compound having 10 or more and less than 20 is denoted as A)
94.7 nM	4.9 nM	–	–	CCC[C@H]1C(=O)N[C@@H](C(CC)CC)C(=O)N(C)CC(=O)N(C)[C@H]2C/C=C\CCN(C2=O)[C@@H](Cc2ccc(C)cc2)C(=O)N(C)CC(=O)N[C@@H](CCc2ccc(C(F)(F)F)c(Cl)c2)C(=O)N2C[C@H](OCC)C[C@H]2C(=O)NC2(CC(C)(C)C2)C(=O)N(C)[C@@H](CC(C)C)C(=O)N(C)[C@H](C(=O)N(C)C)CC(=O)N1C [PP2202]	A (a compound having 10 or more and less than 20 is denoted as A)	A (a compound having 10 or more and less than 20 is denoted as A)	–	–
206 nM	–	–	1.1 nM	CCO[C@@H]1C[C@H]2C(=O)NC3(CCC3)C(=O)N(C)[C@@H](C3CCCC3)C(=O)N(C)[C@H](C(=O)N(C)C)CC(=O)N(C)[C@@H](CC)C(=O)N[C@@H]([C@@H](C)CC)C(=O)N(C)CC(=O)N(C)[C@H]3CCCCCN(C3=O)[C@@H](Cc3nccs3)C(=O)N(C)CC(=O)N[C@@H](CCc3cc(F)c(C(F)(F)F)c(F)c3)C(=O)N2C1 [PP0913]	–	–	B (a compound having 3 or more and less than 10 is denoted as B)	B (a compound having 3 or more and less than 10 is denoted as B)
8.5 nM	–	0.17 nM	–	CCO[C@@H]1C[C@H]2C(=O)NC3(CC(C)(C)C3)C(=O)N(C)[C@@H](C3CCCC3)C(=O)N(C)[C@H](C(=O)N(C)C)CC(=O)N(C)[C@H]3CCCCC/C=C/c4ccc(cc4)C[C@@H](C(=O)N(C)CC(=O)N[C@@H](CCc4ccc(Cl)c(Cl)c4)C(=O)N2C1)N1CC/C=C\C[C@@H](C1=O)N(C)C(=O)CN(C)C(=O)[C@H]([C@@H](C)CC)NC3=O [PP3057]	–	–	A (a compound having 10 or more and less than 20 is denoted as A)	B (a compound having 3 or more and less than 10 is denoted as B)
18.7 nM	0.22 nM	–	–	CCCOC[C@H]1C(=O)N[C@@H]([C@@H](C)CC)C(=O)N(C)CC(=O)N(C)[C@H]2C/C=C\CCN(C2=O)[C@@H](Cc2ccc(C)cc2)C(=O)N(C)CC(=O)N[C@@H](CCc2cc(F)c(C(F)(F)F)c(F)c2)C(=O)N2C[C@H](CCC)C[C@H]2C(=O)NC2(CCC2)C(=O)N(C)[C@@H](C2CCCC2)C(=O)N(C)[C@H](C(=O)N(C)C)CC(=O)N1C [PP2232]	A (a compound having 10 or more and less than 20 is denoted as A)	A (a compound having 10 or more and less than 20 is denoted as A)	–	–
445 nM	–	–	1.6 nM	CCO[C@@H]1C[C@H]2C(=O)NC3(CCC3)C(=O)N(C)[C@@H](C3CCCC3)C(=O)N(C)[C@H](C(=O)N3CCOCC3)CC(=O)N(C)[C@@H](CC(C)C)C(=O)N[C@@H]([C@@H](C)CC)C(=O)N(C)CC(=O)N(C)[C@H]3CCCCCN(C3=O)[C@@H](Cc3nccs3)C(=O)N(C)CC(=O)N[C@@H](CCc3cc(F)c(C(F)(F)F)c(F)c3)C(=O)N2C1 [PP0923]	–	–	B (a compound having 3 or more and less than 10 is denoted as B)	B (a compound having 3 or more and less than 10 is denoted as B)
13.6 nM	0.09 nM	–	–	C#CC[C@H]1C(=O)N[C@@H]([C@@H](C)CC)C(=O)N(C)CC(=O)N(C)[C@H]2C/C=C\CCN(C2=O)[C@@H](Cc2ccc(C(F)(F)F)cc2)C(=O)N(C)CC(=O)N[C@@H](CCc2ccc(C(F)(F)F)c(OC)c2)C(=O)N2C[C@@H](C)C[C@H]2C(=O)NC2(CCC2)C(=O)N(C)[C@@H](C2CCCC2)C(=O)N(C)[C@H](C(=O)N(C)CCC)CC(=O)N1C [PP2063]	AA (a compound having 20 or more is denoted as AA)	A (a compound having 10 or more and less than 20 is denoted as A)	–	–
110 nM	–	0.85 nM	–	CCCN1C(=O)CN(C)C(=O)[C@@H]2CCN2C(=O)[C@H]([C@@H](C)CC)NC(=O)[C@H](CC(C)C)N(C)C(=O)C[C@@H](C(=O)N(C)C)NC(=O)[C@H](C2CCCC2)N(C)C(=O)C2(CCC2)NC(=O)[C@@H]2C[C@@H](OCC)CN2C(=O)[C@H](CCc2ccc(C(F)(F)F)c(Cl)c2)NC(=O)CN(C)C(=O)[C@@H]1Cc1ccc(C(F)(F)F)cc1 [PP0378] ([NMeL]I[Aze][Sar][NPrPhe(4-CF3)][Sar][hPhe(3-Cl-4-CF3)][Hyp](Et)[Ac4c][NMeGly(cPent)]D-NMe2; lactam N-11)	–	–	B (a compound having 3 or more and less than 10 is denoted as B)	B (a compound having 3 or more and less than 10 is denoted as B)
74.3 nM	–	2.3 nM	–	CCCN1C(=O)CN(C)C(=O)CN(CC)C(=O)[C@H]([C@@H](C)CC)NC(=O)[C@H](CC(C)C)N(C)C(=O)C[C@@H](C(=O)N2CCOCC2)N(C)C(=O)[C@H](C2CCCC2)N(C)C(=O)C2(CCCC2)NC(=O)[C@@H]2CCCCN2C(=O)[C@H](CCc2ccc(C(F)(F)F)c(Cl)c2)NC(=O)CN(C)C(=O)[C@@H]1Cc1ccc(C(F)(F)F)cc1 [PP0297] ([NMeL]I[NEtG][Sar][NPrPhe(4-CF3)][Sar][hPhe(3-Cl-4-CF3)][Pip][Ac5c][NMeGly(cPent)][NMeD]-Morpholide; lactam N-11)	–	–	B (a compound having 3 or more and less than 10 is denoted as B)	C (A compound having a KD ratio of 0.1 or more and less than 3 is denoted as C)
41 nM	–	0.56 nM	–	CCCO[C@@H]1C[C@H]2C(=O)N(C)C3(CC(C)(C)C3)C(=O)N(C)[C@@H](C(CC)CC)C(=O)N(C)[C@H](C(=O)N(C)C)CC(=O)N(C)[C@@H](COC)C(=O)N[C@@H]([C@@H](C)CC)C(=O)N(C)CC(=O)N(C)[C@H]3C/C=C\CCN(C3=O)[C@@H](Cc3ccc(C)cc3)C(=O)N(C)CC(=O)N[C@@H](CCc3ccc(Cl)c(Cl)c3)C(=O)N2C1 [PP2812]	–	–	AA (a compound having 20 or more is denoted as AA)	A (a compound having 10 or more and less than 20 is denoted as A)
15.4 nM	–	0.85 nM	–	CCCN1C(=O)CN(C)C(=O)[C@@H]2CCN2C(=O)[C@H]([C@@H](C)CC)NC(=O)[C@H](CC(C)C)N(C)C(=O)C[C@@H](C(=O)N2CCOCC2)N(C)C(=O)[C@H](C2CCCC2)N(C)C(=O)C2(CCCC2)NC(=O)[C@@H]2CCCN2C(=O)[C@H](CCc2ccc(C(F)(F)F)c(Cl)c2)NC(=O)CN(C)C(=O)[C@@H]1Cc1ccc(C(F)(F)F)cc1 [PP0158] ([NMeL]I[Aze][Sar][NPrPhe(4-CF3)][Sar][hPhe(3-Cl-4-CF3)]P[Ac5c][NMeGly(cPent)][NMeD]-Morpholide; lactam N-11)	–	–	A (a compound having 10 or more and less than 20 is denoted as A)	B (a compound having 3 or more and less than 10 is denoted as B)
112 nM	–	3.4 nM	–	CCC[C@H]1C(=O)N[C@@H]([C@@H](C)CC)C(=O)N(C)CC(=O)N(C)[C@H]2C/C=C\CCN(C2=O)[C@@H](Cc2ccc(C)cc2)C(=O)N(C)CC(=O)N[C@@H](CCc2ccc(CC)c(Cl)c2)C(=O)N2C[C@H](OCC)C[C@H]2C(=O)NC2(CC(C)(C)C2)C(=O)N(C)[C@@H](C(CC)CC)C(=O)N(C)[C@H](C(=O)N(C)C)CC(=O)N1C [PP2779]	–	–	A (a compound having 10 or more and less than 20 is denoted as A)	A (a compound having 10 or more and less than 20 is denoted as A)
39.3 nM	–	0.44 nM	–	CCO[C@@H]1C[C@H]2C(=O)NC3(CC(C)(C)C3)C(=O)N(C)[C@@H](C3CCCC3)C(=O)N(C)[C@H](C(=O)N(C)CC)CC(=O)N(C)[C@@H](CC(C)C)C(=O)N[C@@H]([C@@H](C)CC)C(=O)N(C)CC(=O)N(C)[C@H]3C/C=C\CCN(C3=O)[C@@H](Cc3ccc(C(F)F)cc3)C(=O)N(C)CC(=O)N[C@@H](CCc3cc(F)c(Cl)c(OC)c3)C(=O)N2C1 [PP3142]	–	–	A (a compound having 10 or more and less than 20 is denoted as A)	A (a compound having 10 or more and less than 20 is denoted as A)
